Where two headings read alike, the source gives them in different places.
Key:
Type in all cases: biochemical
EPH-A2 = EPH-A2 (Homo sapiens, UniProt P29317); test: Kinase profiling EPH-A2; conditions: read-out: residual kinase activity, EPH-A2
Description: (§1) Any value less that 25 is considered to be highly significant inhibition.

ERK2 = ERK2 (Homo sapiens, UniProt P28482); test: Kinase profiling ERK2; conditions: for remaining activity at 100 µM: read-out: residual kinase activity, ERK2
Description: as §1

BTK = BTK (Homo sapiens, UniProt Q06187); test: Kinase profiling BTK; conditions: read-out: residual kinase activity, BTK
Description: as §1

CAMK1 = CAMK1 (Homo sapiens, UniProt Q14012); test: Kinase profiling CAMK1; conditions: read-out: residual kinase activity, CAMK1
Description: as §1

CK2 = test: Kinase profiling CK2; conditions: 100 micromolar inhibitor concentration; 100 is no change
Description: as §1

CAMKKb = CAMKKb (Homo sapiens, UniProt Q96RR4); test: Kinase profiling CAMKKb; conditions: read-out: residual kinase activity, CAMKKb
Description: as §1

p38g MAPK = target: T1, p38g MAPK (Homo sapiens, UniProt P53778); test: Kinase profiling p38g MAPK; conditions: for remaining activity at 100 µM: read-out: residual kinase activity, p38g MAPK
T1 sequence (P53778 1-367): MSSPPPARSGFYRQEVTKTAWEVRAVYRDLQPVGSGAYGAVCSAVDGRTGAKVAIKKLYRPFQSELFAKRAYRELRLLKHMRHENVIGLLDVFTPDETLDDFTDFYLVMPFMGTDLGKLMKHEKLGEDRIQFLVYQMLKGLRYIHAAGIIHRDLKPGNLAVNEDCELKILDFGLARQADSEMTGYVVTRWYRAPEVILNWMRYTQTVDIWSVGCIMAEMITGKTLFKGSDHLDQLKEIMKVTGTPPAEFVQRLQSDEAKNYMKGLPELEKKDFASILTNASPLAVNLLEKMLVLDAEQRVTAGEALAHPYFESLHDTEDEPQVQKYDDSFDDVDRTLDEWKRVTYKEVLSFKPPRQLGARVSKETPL
Description: as §1

PLK1 = PLK1 (Homo sapiens, UniProt P53350); test: Kinase profiling PLK1; conditions: read-out: residual kinase activity, PLK1
Description: as §1

PKCa = PKCa (Homo sapiens, UniProt P17252); test: Kinase profiling PKCa; conditions: for remaining activity at 100 µM: read-out: residual kinase activity, PKCa
Description: as §1

MKK6 = target: T2, MKK6 (Homo sapiens, UniProt P52564); test: Kinase profiling MKK6; conditions: for remaining activity at 100 µM: read-out: residual kinase activity, MKK6
T2 sequence (P52564 1-334): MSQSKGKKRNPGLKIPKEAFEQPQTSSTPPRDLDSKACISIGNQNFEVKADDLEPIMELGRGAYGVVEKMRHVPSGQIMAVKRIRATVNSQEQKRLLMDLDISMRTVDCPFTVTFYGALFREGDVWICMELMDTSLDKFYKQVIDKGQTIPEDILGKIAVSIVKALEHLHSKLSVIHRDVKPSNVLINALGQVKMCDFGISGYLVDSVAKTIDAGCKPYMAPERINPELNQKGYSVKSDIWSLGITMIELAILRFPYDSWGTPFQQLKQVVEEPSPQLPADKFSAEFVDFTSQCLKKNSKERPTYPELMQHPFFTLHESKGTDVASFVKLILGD
Description: as §1

PKD1 = target: T3, PKD1 (Homo sapiens, UniProt Q15139); test: Kinase profiling PKD1; conditions: for remaining activity at 100 µM: read-out: residual kinase activity, PKD1
T3 sequence (Q15139 1-912): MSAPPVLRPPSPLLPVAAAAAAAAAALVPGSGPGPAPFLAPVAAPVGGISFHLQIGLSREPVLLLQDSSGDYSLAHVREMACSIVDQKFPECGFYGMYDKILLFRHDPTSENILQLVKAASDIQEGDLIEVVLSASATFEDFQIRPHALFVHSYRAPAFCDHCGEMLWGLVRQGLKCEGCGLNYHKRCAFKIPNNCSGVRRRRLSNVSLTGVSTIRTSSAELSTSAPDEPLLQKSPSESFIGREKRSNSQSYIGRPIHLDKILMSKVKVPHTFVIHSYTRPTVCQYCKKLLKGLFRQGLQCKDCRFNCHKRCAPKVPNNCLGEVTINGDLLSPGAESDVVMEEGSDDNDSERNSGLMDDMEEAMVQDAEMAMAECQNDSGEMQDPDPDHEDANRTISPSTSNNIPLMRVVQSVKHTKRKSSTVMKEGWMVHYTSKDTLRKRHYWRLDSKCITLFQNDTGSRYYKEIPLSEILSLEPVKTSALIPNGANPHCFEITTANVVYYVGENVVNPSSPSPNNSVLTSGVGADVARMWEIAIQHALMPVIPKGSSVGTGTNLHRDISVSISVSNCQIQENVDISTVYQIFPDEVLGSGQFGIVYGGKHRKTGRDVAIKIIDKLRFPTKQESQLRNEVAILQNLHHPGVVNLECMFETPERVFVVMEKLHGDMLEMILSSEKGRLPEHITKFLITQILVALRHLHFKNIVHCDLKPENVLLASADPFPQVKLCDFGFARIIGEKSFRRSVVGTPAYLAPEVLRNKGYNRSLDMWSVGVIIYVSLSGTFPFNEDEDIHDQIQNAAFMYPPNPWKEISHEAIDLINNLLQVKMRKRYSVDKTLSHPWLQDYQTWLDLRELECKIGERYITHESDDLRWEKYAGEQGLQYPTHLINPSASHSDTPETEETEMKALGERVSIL
Description: as §1

PAK4 = PAK4 (Homo sapiens, UniProt O96013); test: Kinase profiling PAK4; conditions: read-out: residual kinase activity, PAK4
Description: as §1

PKBa = PKBa (Homo sapiens, UniProt P31749); test: Kinase profiling PKBa; conditions: for remaining activity at 100 µM: read-out: residual kinase activity, PKBa; for residual kinase activity, PKBa: 100 micromolar inhibitor concentration, 100 is no change
Description: as §1

PKA = PKA (Homo sapiens, UniProt P17612); test: Kinase profiling PKA; conditions: for remaining activity at 100 µM: read-out: residual kinase activity, PKA
Description: as §1

[1] = 100 micromolar inhibitor concentration, 100 is no change

Chain of PLK1 (P53350 whole entry, species assumed): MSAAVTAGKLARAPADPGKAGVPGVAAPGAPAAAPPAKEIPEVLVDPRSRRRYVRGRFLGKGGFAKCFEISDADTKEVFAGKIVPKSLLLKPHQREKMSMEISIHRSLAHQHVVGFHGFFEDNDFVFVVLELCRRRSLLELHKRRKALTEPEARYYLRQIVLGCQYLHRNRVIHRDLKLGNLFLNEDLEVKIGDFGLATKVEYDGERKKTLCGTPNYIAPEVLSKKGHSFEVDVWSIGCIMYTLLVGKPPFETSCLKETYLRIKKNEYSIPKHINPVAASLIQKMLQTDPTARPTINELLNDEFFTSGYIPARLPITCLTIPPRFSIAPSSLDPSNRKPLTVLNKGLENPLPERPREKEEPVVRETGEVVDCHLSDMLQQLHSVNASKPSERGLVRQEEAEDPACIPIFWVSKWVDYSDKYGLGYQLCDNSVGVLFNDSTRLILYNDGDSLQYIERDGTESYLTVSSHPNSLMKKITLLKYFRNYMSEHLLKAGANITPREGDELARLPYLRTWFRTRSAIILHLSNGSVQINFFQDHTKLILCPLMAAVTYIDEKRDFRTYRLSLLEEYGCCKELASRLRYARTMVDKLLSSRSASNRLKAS
Chain of ERK2 (P28482 whole entry, species assumed): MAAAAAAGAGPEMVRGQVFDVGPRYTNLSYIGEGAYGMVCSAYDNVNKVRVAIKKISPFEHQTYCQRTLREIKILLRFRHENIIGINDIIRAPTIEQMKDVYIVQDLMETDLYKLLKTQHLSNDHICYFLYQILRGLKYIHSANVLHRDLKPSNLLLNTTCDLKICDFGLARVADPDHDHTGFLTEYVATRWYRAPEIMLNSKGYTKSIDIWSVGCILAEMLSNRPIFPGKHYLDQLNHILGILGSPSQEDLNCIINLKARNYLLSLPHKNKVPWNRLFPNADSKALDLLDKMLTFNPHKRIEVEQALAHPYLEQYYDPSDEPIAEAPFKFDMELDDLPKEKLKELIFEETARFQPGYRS
Chain of PAK4 (O96013 whole entry, species assumed): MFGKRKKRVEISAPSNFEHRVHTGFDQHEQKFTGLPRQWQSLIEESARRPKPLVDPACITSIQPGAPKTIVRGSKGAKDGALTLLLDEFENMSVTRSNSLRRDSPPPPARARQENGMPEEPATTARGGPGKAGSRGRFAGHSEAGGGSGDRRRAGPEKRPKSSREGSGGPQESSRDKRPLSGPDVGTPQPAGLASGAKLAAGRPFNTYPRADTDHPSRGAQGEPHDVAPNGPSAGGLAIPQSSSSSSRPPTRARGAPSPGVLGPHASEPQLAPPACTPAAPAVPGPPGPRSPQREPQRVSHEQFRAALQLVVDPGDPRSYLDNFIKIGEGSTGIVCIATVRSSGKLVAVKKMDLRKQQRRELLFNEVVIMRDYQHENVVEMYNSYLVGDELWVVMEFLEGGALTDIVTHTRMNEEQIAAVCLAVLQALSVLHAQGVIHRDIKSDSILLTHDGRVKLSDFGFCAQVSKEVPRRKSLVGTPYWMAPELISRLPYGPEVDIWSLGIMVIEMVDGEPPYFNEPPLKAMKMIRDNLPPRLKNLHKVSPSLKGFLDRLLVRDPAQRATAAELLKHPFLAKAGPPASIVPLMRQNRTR
Chain of EPH-A2 (P29317 24-976, species assumed): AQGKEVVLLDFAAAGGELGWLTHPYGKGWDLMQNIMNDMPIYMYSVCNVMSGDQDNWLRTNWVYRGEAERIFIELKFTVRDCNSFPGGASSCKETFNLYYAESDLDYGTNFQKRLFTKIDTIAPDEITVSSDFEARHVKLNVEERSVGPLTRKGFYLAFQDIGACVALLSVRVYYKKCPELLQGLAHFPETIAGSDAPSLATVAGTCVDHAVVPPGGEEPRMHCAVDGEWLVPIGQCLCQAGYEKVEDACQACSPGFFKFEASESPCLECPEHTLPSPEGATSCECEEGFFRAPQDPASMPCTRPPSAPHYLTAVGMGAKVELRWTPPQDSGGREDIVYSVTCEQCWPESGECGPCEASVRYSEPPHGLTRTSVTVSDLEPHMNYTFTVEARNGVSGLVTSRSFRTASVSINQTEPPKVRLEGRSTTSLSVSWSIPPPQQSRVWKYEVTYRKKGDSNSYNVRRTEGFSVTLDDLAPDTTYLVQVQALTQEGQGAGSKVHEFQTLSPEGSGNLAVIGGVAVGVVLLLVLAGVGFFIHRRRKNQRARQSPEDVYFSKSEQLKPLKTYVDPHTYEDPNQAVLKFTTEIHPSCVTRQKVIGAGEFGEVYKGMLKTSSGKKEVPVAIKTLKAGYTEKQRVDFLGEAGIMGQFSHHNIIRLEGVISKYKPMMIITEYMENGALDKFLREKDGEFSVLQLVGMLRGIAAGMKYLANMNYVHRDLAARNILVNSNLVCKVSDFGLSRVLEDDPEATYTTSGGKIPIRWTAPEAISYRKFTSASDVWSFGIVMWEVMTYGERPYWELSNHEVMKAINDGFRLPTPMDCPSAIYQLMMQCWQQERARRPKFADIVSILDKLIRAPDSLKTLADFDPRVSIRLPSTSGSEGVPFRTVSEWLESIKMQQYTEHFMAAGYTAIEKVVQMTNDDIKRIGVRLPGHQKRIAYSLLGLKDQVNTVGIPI
Chain of PKBa (P31749 whole entry): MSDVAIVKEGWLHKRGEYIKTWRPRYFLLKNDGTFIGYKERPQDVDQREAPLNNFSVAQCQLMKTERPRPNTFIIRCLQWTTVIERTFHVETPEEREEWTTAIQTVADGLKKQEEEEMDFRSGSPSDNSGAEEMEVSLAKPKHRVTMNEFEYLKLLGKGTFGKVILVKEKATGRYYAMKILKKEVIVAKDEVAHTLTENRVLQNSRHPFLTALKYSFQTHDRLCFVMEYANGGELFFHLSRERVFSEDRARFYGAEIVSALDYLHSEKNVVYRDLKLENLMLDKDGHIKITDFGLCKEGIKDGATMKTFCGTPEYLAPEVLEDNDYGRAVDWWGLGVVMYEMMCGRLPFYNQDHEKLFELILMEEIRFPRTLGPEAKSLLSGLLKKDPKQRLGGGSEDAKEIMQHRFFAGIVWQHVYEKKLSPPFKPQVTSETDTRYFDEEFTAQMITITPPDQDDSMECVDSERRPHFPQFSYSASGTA
Chain of CAMK1 (Q14012 whole entry, species assumed): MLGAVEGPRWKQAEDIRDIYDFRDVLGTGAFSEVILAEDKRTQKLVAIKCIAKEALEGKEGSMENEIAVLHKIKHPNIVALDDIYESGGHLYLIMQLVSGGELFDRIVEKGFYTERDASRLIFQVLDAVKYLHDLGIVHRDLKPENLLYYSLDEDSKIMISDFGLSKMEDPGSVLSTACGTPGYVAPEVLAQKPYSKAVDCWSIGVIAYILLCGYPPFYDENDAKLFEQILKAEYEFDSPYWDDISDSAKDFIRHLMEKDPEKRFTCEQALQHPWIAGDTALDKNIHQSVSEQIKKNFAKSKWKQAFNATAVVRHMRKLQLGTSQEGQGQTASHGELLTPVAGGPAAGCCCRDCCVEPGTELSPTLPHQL
Chain of CAMKKb (Q96RR4 whole entry, species assumed): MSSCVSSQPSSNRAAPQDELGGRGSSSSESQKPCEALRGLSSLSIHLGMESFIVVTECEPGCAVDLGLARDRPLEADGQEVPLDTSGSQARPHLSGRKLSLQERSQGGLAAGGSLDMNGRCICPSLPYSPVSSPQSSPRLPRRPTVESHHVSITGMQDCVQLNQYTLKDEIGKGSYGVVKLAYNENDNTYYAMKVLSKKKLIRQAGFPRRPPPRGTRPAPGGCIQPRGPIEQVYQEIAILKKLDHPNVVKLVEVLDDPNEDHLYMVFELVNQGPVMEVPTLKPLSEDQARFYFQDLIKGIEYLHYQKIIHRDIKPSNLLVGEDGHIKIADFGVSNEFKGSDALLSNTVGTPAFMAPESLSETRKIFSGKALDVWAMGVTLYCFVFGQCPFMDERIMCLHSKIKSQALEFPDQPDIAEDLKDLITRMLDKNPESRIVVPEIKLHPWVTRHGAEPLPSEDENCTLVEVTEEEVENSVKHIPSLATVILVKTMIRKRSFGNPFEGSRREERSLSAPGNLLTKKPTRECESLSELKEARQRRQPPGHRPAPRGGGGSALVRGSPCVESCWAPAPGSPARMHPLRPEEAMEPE

| Compound | residual kinase activity, CK2 (CK2) | remaining activity at 100 µM (PKBa) [%] | residual kinase activity, ERK2 (ERK2; [1]) | residual kinase activity, p38g MAPK (p38g MAPK; [1]) | residual kinase activity, PKCa (PKCa; [1]) | residual kinase activity, MKK6 (MKK6; [1]) | residual kinase activity, PKD1 (PKD1; [1]) | residual kinase activity, PKBa (PKBa) | residual kinase activity, PKA (PKA; [1]) | other results |
| --- | --- | --- | --- | --- | --- | --- | --- | --- | --- | --- |
| CC(=O)Nc1nc2cc(O)ccc2s1 [Compound 01-66, N-(5-hydroxybenzo[d]thiazol-2-yl)acetamide] | 54 | 87 |  |  |  |  |  |  |  | remaining activity at 100 µM (EPH-A2): 67%; remaining activity at 100 µM (ERK2): 104%; remaining activity at 100 µM (BTK): 67%; remaining activity at 100 µM (CAMK1): 69%; remaining activity at 100 µM (CAMKKb): 44%; remaining activity at 100 µM (p38g MAPK): 46%; remaining activity at 100 µM (PLK1): 103%; remaining activity at 100 µM (PKCa): 82%; remaining activity at 100 µM (MKK6): 70%; remaining activity at 100 µM (PKD1): 30%; remaining activity at 100 µM (PAK4): 66%; remaining activity at 100 µM (PKA): 95% |
| CC(=O)Nc1nc2ccc(O)cc2s1 [Compound 01-71] | 23 | 87 |  |  |  |  |  |  |  | remaining activity at 100 µM (EPH-A2; [1]): 66%; remaining activity at 100 µM (ERK2; [1]): 83%; remaining activity at 100 µM (BTK; [1]): 69%; remaining activity at 100 µM (CAMK1; [1]): 52%; remaining activity at 100 µM (CAMKKb; [1]): 57%; remaining activity at 100 µM (p38g MAPK; [1]): 84%; remaining activity at 100 µM (PLK1; [1]): 97%; remaining activity at 100 µM (PKCa; [1]): 77%; remaining activity at 100 µM (MKK6; [1]): 78%; remaining activity at 100 µM (PKD1; [1]): 37%; remaining activity at 100 µM (PAK4; [1]): 51%; remaining activity at 100 µM (PKA; [1]): 70% |
| CC(=O)Nc1nc2ccc(C(F)(F)F)cc2s1 [Compound 01-90] | 92 | 104 |  |  |  |  |  |  |  | remaining activity at 100 µM (EPH-A2; [1]): 67%; remaining activity at 100 µM (ERK2; [1]): 102%; remaining activity at 100 µM (BTK; [1]): 73%; remaining activity at 100 µM (CAMK1; [1]): 64%; remaining activity at 100 µM (CAMKKb; [1]): 29%; remaining activity at 100 µM (p38g MAPK; [1]): 101%; remaining activity at 100 µM (PLK1; [1]): 80%; remaining activity at 100 µM (PKCa; [1]): 101%; remaining activity at 100 µM (MKK6; [1]): 85%; remaining activity at 100 µM (PKD1; [1]): 119%; remaining activity at 100 µM (PAK4; [1]): 67%; remaining activity at 100 µM (PKA; [1]): 87% |
| CC(=O)Nc1nc2ccc(C#N)cc2s1 [Compound 01-94] | 66 | 95 |  |  |  |  |  |  |  | remaining activity at 100 µM (EPH-A2; [1]): 73%; remaining activity at 100 µM (ERK2; [1]): 91%; remaining activity at 100 µM (BTK; [1]): 98%; remaining activity at 100 µM (CAMK1; [1]): 80%; remaining activity at 100 µM (CAMKKb; [1]): 35%; remaining activity at 100 µM (p38g MAPK; [1]): 82%; remaining activity at 100 µM (PLK1; [1]): 108%; remaining activity at 100 µM (PKCa; [1]): 93%; remaining activity at 100 µM (MKK6; [1]): 98%; remaining activity at 100 µM (PKD1; [1]): 97%; remaining activity at 100 µM (PAK4; [1]): 34%; remaining activity at 100 µM (PKA; [1]): 93% |
| CC(=O)Nc1cccc(C(=O)Nc2nc3ccc(O)cc3s2)c1 [Compound 03-58] |  |  | 104 | 64 | 96 | 103 | 54 | 92 | 90 |  |
| CC(=O)NC(C)C(=O)Nc1nc2ccc(C(F)(F)F)cc2s1 (stereo not drawn) [Compound 03-80] |  |  | 101 | 83 | 125 | 115 | 82 | 105 | 104 |  |
| CC(=O)Nc1ccccc1C(=O)Nc1nc2ccc(O)cc2s1 [Compound 08-39] |  |  | 68 | 90 | 43 | 96 | 32 | 84 | 88 |  |
| COc1ccc2sc(NC(=O)c3ccc(NC(C)=O)cc3)nc2c1 [MS:LY-2-77] |  |  | 105 | 121 | 97 | 111 | 114 | 89 | 102 |  |
| COc1ccc2sc(NC(=O)c3cccc(NC(C)=O)c3)nc2c1 [MS:LY-2-85] |  |  | 98 | 80 | 63 | 99 | 49 | 90 | 98 |  |
| CC(=O)Nc1ccc(C(=O)Nc2nc3cc(O)ccc3s2)cc1 [MS:LY-2-87] |  |  | 81 | 93 | 59 | 107 | 52 | 86 | 93 |  |
| CC(=O)Nc1cccc(C(=O)Nc2nc3cc(O)ccc3s2)c1 [MS:LY-2-89] |  |  | 68 | 64 | 48 | 98 | 22 | 82 | 87 |  |
